# Patent US10301284B2, “Therapeutic inhibitory compounds” (LifeSci Pharmaceuticals, Inc., priority 2016, dated 2019)
# Like-named read-outs stand apart in the source and are kept apart here.
# Tests used:
# human Plasma Kallikrein [1] = molecular target: T1, human Plasma Kallikrein (Homo sapiens (Human), UniProt P03952); assay: In vitro enzyme inhibition of human plasma kallikrein (Pro-Phe-Arg-AMC cleavage); assay type: biochemical; conditions: human plasma kallikrein, PFR-AMC substrate, 37° C.; read-out: hPK IC50
# T1 sequence (P03952 391-638 limits assumed): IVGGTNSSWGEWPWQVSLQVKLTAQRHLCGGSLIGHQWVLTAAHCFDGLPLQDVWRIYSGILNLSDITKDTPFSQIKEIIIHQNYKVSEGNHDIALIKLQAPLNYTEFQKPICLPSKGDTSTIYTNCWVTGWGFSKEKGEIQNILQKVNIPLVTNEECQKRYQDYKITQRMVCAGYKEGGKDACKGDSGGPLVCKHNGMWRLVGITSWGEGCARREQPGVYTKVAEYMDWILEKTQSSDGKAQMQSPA
# T1 sequence (P03952 20-390 partner limits assumed): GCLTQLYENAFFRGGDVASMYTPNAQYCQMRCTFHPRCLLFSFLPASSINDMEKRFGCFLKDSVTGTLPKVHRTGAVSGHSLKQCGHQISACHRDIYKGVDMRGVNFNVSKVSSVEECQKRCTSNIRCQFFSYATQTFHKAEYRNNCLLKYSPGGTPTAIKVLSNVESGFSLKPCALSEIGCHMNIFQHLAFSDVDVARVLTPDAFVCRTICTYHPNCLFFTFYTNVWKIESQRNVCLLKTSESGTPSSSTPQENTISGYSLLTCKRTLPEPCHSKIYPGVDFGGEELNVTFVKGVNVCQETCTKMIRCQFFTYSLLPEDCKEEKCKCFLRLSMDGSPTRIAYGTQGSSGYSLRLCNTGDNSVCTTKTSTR
# Outline: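 Human plasma kallikrein preincubated 5 min at 37 °C with compound in 50 mM Tris-HCl pH 7.5, 150 mM NaCl, 0.01% Triton X-100. Reaction started with Pro-Phe-Arg-AMC, fluorescence read every 43 s for 1 h at 37 °C. IC50 from highest mean velocity over 20 reads (~15 min).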
# human Plasma Kallikrein [2] = molecular target: T1, human Plasma Kallikrein; assay: Human whole blood kallikrein inhibition (ellagic acid-activated human plasma, Z-FR-2-AMC substrate); assay type: biochemical
# Outline: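 Platelet-depleted human plasma was activated with ellagic acid and diluted in 50 mM Tris-HCl pH 7.2, 150 mM NaCl, 0.01% Triton X-100, then preincubated 15 min at 37 °C. Compounds (0.076 nM–20 μM, duplicates) were added for 5 min at 37 °C. Z-FR-2-AMC (40 μM final) was read kinetically at ex 330/em 440 nm for 60 min, and IC50 was taken from a variable-slope fit.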
# [3] = Pharmacokinetic evaluation, oral exposure in rats; assay type: in vivo; conditions: male Sprague-Dawley rats, single oral dose 10 mg/kg via oral gavage, plasma
# Outline: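 Male Sprague-Dawley rats dosed once at 10 mg/kg by oral gavage (2 mg/mL formulation). Jugular blood drawn pre-dose and from 5 min to 24 h post-dose; plasma compound levels measured by LC/MS/MS.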
# [4] = human plasma activated with ellagic acid, Z-FR-2-AMC 40 μM, 37° C., read-out: HWB EC50
compound,measurement,setting,value
"Cc1nc(N)ccc1CNC(=O)c1cn(Cc2ccc3ncc(C4CC4)cc3c2)nc1C#N [Example 66, N-((6-amino-2-methylpyridin-3-yl)methyl)-3-cyano-1-((3-cyclopropylquinolin-6-yl)methyl)-1H-pyrazole-4-carboxamide]",IC50,human Plasma Kallikrein [1],< 100 nM
same,EC50,human Plasma Kallikrein [2]; [4],< 100 nM
same,AUC,"[3]; rat, read-out: AUC",100 to 1000 ng·h/mL
"Cc1cc(N)nc(C)c1CNC(=O)c1cn(Cc2cc(C(C)(C)O)c3ncc(Cl)cc3c2)nc1C#N [Example 58, N-((6-amino-2,4-dimethylpyridin-3-yl)methyl)-1-((3-chloro-8-(2-hydroxypropan-2-yl)quinolin-6-yl)methyl)-3-cyano-1H-pyrazole-4-carboxamide]",IC50,human Plasma Kallikrein [1],< 100 nM
same,EC50,human Plasma Kallikrein [2]; [4],< 100 nM
same,AUC,"[3]; rat, read-out: AUC",< 100 ng·h/mL
"Cc1cc(N)nc(C)c1CNC(=O)c1cn(Cc2ccc3ncc(C4CC4)cc3c2)nc1C#N [Example 65, N-((6-amino-2,4-dimethylpyridin-3-yl)methyl)-3-cyano-1-((3-cyclopropylquinolin-6-yl)methyl)-1H-pyrazole-4-carboxamide]",IC50,human Plasma Kallikrein [1],< 100 nM
same,EC50,human Plasma Kallikrein [2]; [4],< 100 nM
same,AUC,"[3]; rat, read-out: AUC",100 to 1000 ng·h/mL
"Cc1cc(N)nc(C)c1CNC(=O)c1ncn(Cc2ccc3ncc(Cl)cc3c2)n1 [Example 4, N-((6-amino-2,4-dimethylpyridin-3-yl)methyl)-1-((3-chloroquinolin-6-yl)methyl)-1H-1,2,4-triazole-3-carboxamide]",IC50,human Plasma Kallikrein [1],< 100 nM
same,EC50,human Plasma Kallikrein [2]; [4],< 100 nM
same,AUC,"[3]; rat, read-out: AUC",< 100 ng·h/mL
"Cc1cnc2ccc(Cn3cc(C(=O)NCc4ccc(N)nc4C)c(C#N)n3)cc2c1 [Example 82, N-((6-amino-2-methylpyridin-3-yl)methyl)-3-cyano-1-((3-methylquinolin-6-yl)methyl)-1H-pyrazole-4-carboxamide]",IC50,human Plasma Kallikrein [1],< 100 nM
same,EC50,human Plasma Kallikrein [2]; [4],< 100 nM
same,AUC,"[3]; rat, read-out: AUC",100 to 1000 ng·h/mL
"Cc1cc(N)nc(C)c1CNC(=O)c1cn(Cc2cc(F)c3ncc(Cl)cc3c2)nc1C#N [Example 52, N-((6-amino-2,4-dimethylpyridin-3-yl)methyl)-1-((3-chloro-8-fluoroquinolin-6-yl)methyl)-3-cyano-1H-pyrazole-4-carboxamide]",IC50,human Plasma Kallikrein [1],< 100 nM
same,EC50,human Plasma Kallikrein [2]; [4],< 100 nM
same,AUC,"[3]; rat, read-out: AUC",100 to 1000 ng·h/mL
"Cc1cc(N)nc(C)c1CNC(=O)c1cn(Cc2ccc3ncc(Cl)cc3c2)cn1 [Example 3, N-((6-amino-2,4-dimethylpyridin-3-yl)methyl)-1-((3-chloroquinolin-6-yl)methyl)-1H-imidazole-4-carboxamide]",IC50,human Plasma Kallikrein [1],< 100 nM
same,EC50,human Plasma Kallikrein [2]; [4],< 100 nM
same,AUC,"[3]; rat, read-out: AUC",100 to 1000 ng·h/mL
"Cc1cc(N)nc(C)c1CNC(=O)c1cn(Cc2ccc3ncc(Cl)cc3c2)c2ncccc12 [Example 12, N-((6-amino-2,4-dimethylpyridin-3-yl)methyl)-1-((3-chloroquinolin-6-yl)methyl)-1H-pyrrolo[2,3-b]pyridine-3-carboxamide]",IC50,human Plasma Kallikrein [1],< 100 nM
same,EC50,human Plasma Kallikrein [2],< 100 nM
same,AUC,"[3]; rat, read-out: AUC",100 to 1000 ng·h/mL
"Cc1cc(N)nc(C)c1CNC(=O)c1noc(Cc2ccc3ncc(Cl)cc3c2)n1 [Example 7, N-((6-amino-2,4-dimethylpyridin-3-yl)methyl)-5-((3-chloroquinolin-6-yl)methyl)-1,2,4-oxadiazole-3-carboxamide]",IC50,human Plasma Kallikrein [1],< 100 nM
same,EC50,human Plasma Kallikrein [2]; [4],< 100 nM
same,AUC,"[3]; rat, read-out: AUC",1000 to 10000 ng·h/mL
"Cc1cc(N)nc(C)c1CNC(=O)c1nnc(Cc2ccc3ncc(Cl)cc3c2)n1C [Example 98, N-((6-amino-2,4-dimethylpyridin-3-yl)methyl)-5-((3-chloroquinolin-6-yl)methyl)-4-methyl-4H-1,2,4-triazole-3-carboxamide]",IC50,human Plasma Kallikrein [1],< 100 nM
same,EC50,human Plasma Kallikrein [2]; [4],< 100 nM
same,AUC,"[3]; rat, read-out: AUC",1000 to 10000 ng·h/mL
"Cc1cc(N)nc(C)c1CNC(=O)c1nc(Cc2ccc3ncc(Cl)cc3c2)no1 [Example 6, N-((6-amino-2,4-dimethylpyridin-3-yl)methyl)-3-((3-chloroquinolin-6-yl)methyl)-1,2,4-oxadiazole-5-carboxamide]",IC50,human Plasma Kallikrein [1],< 100 nM
same,EC50,human Plasma Kallikrein [2]; [4],< 100 nM
same,AUC,"[3]; rat, read-out: AUC",100 to 1000 ng·h/mL
"N-((6-amino-2,4-dimethylpyridin-3-yl)methyl)-1-((3-chloroquinolin-6-yl)methyl)-3-cyano-1H-pyrazole-4-carboxamide [Example 26]",IC50,human Plasma Kallikrein [1],< 100 nM
same,EC50,human Plasma Kallikrein [2]; [4],100 to 1000 nM
same,AUC,[3],B (>100 ng · h/mL to ≤1000 ng · h/mL)
"Cc1cc(N)nc(C)c1CNC(=O)c1cn(Cc2ccc3ncc(C(F)(F)F)cc3c2)nc1C#N [Example 73, N-((6-amino-2,4-dimethylpyridin-3-yl)methyl)-3-cyano-1-((3-(trifluoromethyl)quinolin-6-yl)methyl)-1H-pyrazole-4-carboxamide]",IC50,human Plasma Kallikrein [1],< 100 nM
same,EC50,human Plasma Kallikrein [2]; [4],< 100 nM
same,AUC,"[3]; rat, read-out: AUC",100 to 1000 ng·h/mL
"4-amino-N-((6-amino-2,4-dimethylpyridin-3-yl)methyl)-1-((3-chloroquinolin-6-yl)methyl)-1H-pyrazole-3-carboxamide [Example 25]",IC50,human Plasma Kallikrein [1],< 100 nM
same,EC50,human Plasma Kallikrein [2]; [4],< 100 nM
same,AUC,[3],"C (>1000 ng · h/mL to ≤10,000 ng · h/mL)"
"Cc1cc(N)nc(C)c1CNC(=O)c1ncc(Cc2ccc3ncc(Cl)cc3c2)o1 [Example 31, N-((6-amino-2,4-dimethylpyridin-3-yl)methyl)-5-((3-chloroquinolin-6-yl)methyl)oxazole-2-carboxamide]",IC50,human Plasma Kallikrein [1],< 100 nM
same,EC50,human Plasma Kallikrein [2]; [4],< 100 nM
same,AUC,"[3]; rat, read-out: AUC",1000 to 10000 ng·h/mL
